Measured values published in patent US7884136B2, “Modified-release formulations of a bupropion salt” (Biovail Laboratories International S.R.L., priority 2005, dated 2011).

Assay: Shelf life stability program of bupropion HBr, 25° C./60% RH, 3 and 6 months, HPLC
Type: physicochemical
Settings: 25° C./RH 60%; for Chromatographic purity B) (HPLC): 4) 2-N-(tert-Butyl)-aminopropiophenone / Chromatographic purity B) (HPLC): 5) single unknown impurity (each): LOQ 0.02%, LOD 0.002%; for Chromatographic purity A) (HPLC): 1) 3′-Chloropropiophenone / Chromatographic purity A) (HPLC): 3) 3′-Chlorobenzoic acid / Chromatographic purity A) (HPLC): 2) 3′-Chloro-2-bromopropiophenone: LOQ 0.05%; for Chromatographic purity A) (HPLC): 1) 3′-Chloropropiophenone / Chromatographic purity A) (HPLC): 3) 3′-Chlorobenzoic acid: LOD 0.01%; for Chromatographic purity A) (HPLC): 2) 3′-Chloro-2-bromopropiophenone: LOD 0.04%; for Description: specification white or almost white crystalline powder; for Chromatographic purity B) (HPLC): 6) total unknown impurities: sum of all impurity peak areas; for Assay (HPLC): on d.b.
Description: The stability of bupropion HBr was studied over a longer term under conditions meant to approximate standard storage or shelf conditions. Samples were prepared in closed containers and subjected to long-term storage at 25° C.+2° C. and 60%+5% RH in a stability chamber. The samples were analyzed by HPLC prior to being placed in the stability chamber (time 0) and after 3 months and 6 months. The amounts of the main degradation products present at time 0 were compared with the amounts present at 3 months and 6 months. As shown in Table 77-79 three different batches of bupropion HBr were tested. As in Example 10 each sample was tested under two HPLC assay conditions to identify 6 impurities or groups of impurities as described in Example 10.

For `Br.CC(NC(C)(C)C)C(=O)c1cccc(Cl)c1` (stereo not drawn) [Bupropion•HBr D00896], the “Chromatographic purity (HPLC: A + B) Total impurities” value (3 months) was 0.1%, the “Water content (K.F.)” value (3 months) was 0.04% and the “Chromatographic purity B) (HPLC): 4) 2-N-(tert-Butyl)-aminopropiophenone” value (3 months) was 4) 0.03%. For the same compound, the “Chromatographic purity B) (HPLC): 5) single unknown impurity (each)” value (3 months) was 5) 0.04%, the “Chromatographic purity A) (HPLC): 1) 3′-Chloropropiophenone” value (3 months) was 1) n.q and the “Chromatographic purity A) (HPLC): 3) 3′-Chlorobenzoic acid” value (3 months) was 3) n.q. The “Chromatographic purity A) (HPLC): 2) 3′-Chloro-2-bromopropiophenone” value (3 months) was 2) n.d, the Description (3 months) was “conform” and the “Chromatographic purity B) (HPLC): 6) total unknown impurities” value (3 months) was 6) 0.05%. For the same compound, the “Chromatographic purity (HPLC: A + B) Total impurities” value (6 months) was 0.1%, the “Water content (K.F.)” value (6 months) was 0.04% and the “Chromatographic purity B) (HPLC): 4) 2-N-(tert-Butyl)-aminopropiophenone” value (6 months) was 4) 0.04%. For the same compound, the “Chromatographic purity B) (HPLC): 5) single unknown impurity (each)” value (6 months) was 5) n.q, the “Chromatographic purity A) (HPLC): 1) 3′-Chloropropiophenone” value (6 months) was 1) 0.05% and the “Chromatographic purity A) (HPLC): 3) 3′-Chlorobenzoic acid” value (6 months) was 3) n.q. For the same compound, the “Chromatographic purity A) (HPLC): 2) 3′-Chloro-2-bromopropiophenone” value (6 months) was 2) n.d, the “Assay (HPLC)” value (6 months) was 100.5% and the Description (6 months) was “conform”. For the same compound, the “Chromatographic purity B) (HPLC): 6) total unknown impurities” value (6 months) was 6) n.q, the “Chromatographic purity (HPLC: A + B) Total impurities” value (9 months) was “n.q” and the “Water content (K.F.)” value (9 months) was 0.04%. For the same compound, the “Chromatographic purity B) (HPLC): 4) 2-N-(tert-Butyl)-aminopropiophenone” value (9 months) was 4) n.d, the “Chromatographic purity B) (HPLC): 5) single unknown impurity (each)” value (9 months) was 5) n.q and the “Chromatographic purity A) (HPLC): 1) 3′-Chloropropiophenone” value (9 months) was 1) n.q. The “Chromatographic purity A) (HPLC): 3) 3′-Chlorobenzoic acid” value (9 months) was 3) n.q, the “Chromatographic purity A) (HPLC): 2) 3′-Chloro-2-bromopropiophenone” value (9 months) was 2) n.d and the Description (9 months) was “conform”. For the same compound, the “Chromatographic purity B) (HPLC): 6) total unknown impurities” value (9 months) was 6) n.q, the “Chromatographic purity (HPLC: A + B) Total impurities” value (12 months) was 0.1% and the “Water content (K.F.)” value (12 months) was 0.03%. The “Chromatographic purity B) (HPLC): 4) 2-N-(tert-Butyl)-aminopropiophenone” value (12 months) was 4) 0.05%, the “Chromatographic purity B) (HPLC): 5) single unknown impurity (each)” value (12 months) was 5) 0.07% and the “Chromatographic purity A) (HPLC): 1) 3′-Chloropropiophenone” value (12 months) was 1) n.d. For the same compound, the “Chromatographic purity A) (HPLC): 3) 3′-Chlorobenzoic acid” value (12 months) was 3) n.q, the “Chromatographic purity A) (HPLC): 2) 3′-Chloro-2-bromopropiophenone” value (12 months) was 2) n.d and the “Assay (HPLC)” value (12 months) was 100.3%. The Description (12 months) was “conform”, the “Chromatographic purity B) (HPLC): 6) total unknown impurities” value (12 months) was 6) 0.07% and the “Chromatographic purity (HPLC: A + B) Total impurities” value (time 0) was 0.1%. For the same compound, the “Water content (K.F.)” value (time 0) was 0.06%, the “Chromatographic purity B) (HPLC): 4) 2-N-(tert-Butyl)-aminopropiophenone” value (time 0) was 4) 0.04% and the “Chromatographic purity B) (HPLC): 5) single unknown impurity (each)” value (time 0) was 5) 0.05%. For the same compound, the “Chromatographic purity A) (HPLC): 1) 3′-Chloropropiophenone” value (time 0) was 1) n.d, the “Chromatographic purity A) (HPLC): 3) 3′-Chlorobenzoic acid” value (time 0) was 3) n.q and the “Chromatographic purity A) (HPLC): 2) 3′-Chloro-2-bromopropiophenone” value (time 0) was 2) n.d. For the same compound, the “Assay (HPLC)” value (time 0) was 99.3%, the Description (time 0) was “conform” and the “Chromatographic purity B) (HPLC): 6) total unknown impurities” value (time 0) was 6) 0.05%.
For `Br.CC(NC(C)(C)C)C(=O)c1cccc(Cl)c1` (stereo not drawn) [Bupropion•HBr D00894], the “Chromatographic purity (HPLC: A + B) Total impurities” value (3 months) was 0.1%, the “Water content (K.F.)” value (3 months) was 0.05% and the “Chromatographic purity B) (HPLC): 4) 2-N-(tert-Butyl)-aminopropiophenone” value (3 months) was 4) 0.03%. For the same compound, the “Chromatographic purity B) (HPLC): 5) single unknown impurity (each)” value (3 months) was 5) 0.04%, the “Chromatographic purity A) (HPLC): 1) 3′-Chloropropiophenone” value (3 months) was 1) n.q and the “Chromatographic purity A) (HPLC): 3) 3′-Chlorobenzoic acid” value (3 months) was 3) n.q. The “Chromatographic purity A) (HPLC): 2) 3′-Chloro-2-bromopropiophenone” value (3 months) was 2) n.d, the Description (3 months) was “conform” and the “Chromatographic purity (HPLC: A + B) Total impurities” value (6 months) was 0.1%. The “Water content (K.F.)” value (6 months) was 0.06%, the “Chromatographic purity B) (HPLC): 4) 2-N-(tert-Butyl)-aminopropiophenone” value (6 months) was 4) 0.05% and the “Chromatographic purity B) (HPLC): 5) single unknown impurity (each)” value (6 months) was 5) n.q. The “Chromatographic purity A) (HPLC): 1) 3′-Chloropropiophenone” value (6 months) was 1) 0.05%, the “Chromatographic purity A) (HPLC): 3) 3′-Chlorobenzoic acid” value (6 months) was 3) n.q and the “Chromatographic purity A) (HPLC): 2) 3′-Chloro-2-bromopropiophenone” value (6 months) was 2) n.d. The “Assay (HPLC)” value (6 months) was 100.2%, the Description (6 months) was “conform” and the “Chromatographic purity (HPLC: A + B) Total impurities” value (9 months) was “n.q”. The “Water content (K.F.)” value (9 months) was 0.05%, the “Chromatographic purity B) (HPLC): 4) 2-N-(tert-Butyl)-aminopropiophenone” value (9 months) was 4) n.d and the “Chromatographic purity B) (HPLC): 5) single unknown impurity (each)” value (9 months) was 5) n.q. For the same compound, the “Chromatographic purity A) (HPLC): 1) 3′-Chloropropiophenone” value (9 months) was 1) n.q, the “Chromatographic purity A) (HPLC): 3) 3′-Chlorobenzoic acid” value (9 months) was 3) n.q and the “Chromatographic purity A) (HPLC): 2) 3′-Chloro-2-bromopropiophenone” value (9 months) was 2) n.d. For the same compound, the Description (9 months) was “conform”, the “Chromatographic purity B) (HPLC): 6) total unknown impurities” value (9 months) was 6) n.q and the “Chromatographic purity (HPLC: A + B) Total impurities” value (12 months) was 0.2%. For the same compound, the “Water content (K.F.)” value (12 months) was 0.05%, the “Chromatographic purity B) (HPLC): 4) 2-N-(tert-Butyl)-aminopropiophenone” value (12 months) was 4) 0.05% and the “Chromatographic purity B) (HPLC): 5) single unknown impurity (each)” value (12 months) was 5) 0.05%. The “Chromatographic purity A) (HPLC): 1) 3′-Chloropropiophenone” value (12 months) was 1) n.d, the “Chromatographic purity A) (HPLC): 3) 3′-Chlorobenzoic acid” value (12 months) was 3) 0.05% and the “Chromatographic purity A) (HPLC): 2) 3′-Chloro-2-bromopropiophenone” value (12 months) was 2) n.d. The “Assay (HPLC)” value (12 months) was 99.6%, the Description (12 months) was “conform” and the “Chromatographic purity B) (HPLC): 6) total unknown impurities” value (12 months) was 6) 0.07%. The “Chromatographic purity (HPLC: A + B) Total impurities” value (time 0) was 0.1%, the “Water content (K.F.)” value (time 0) was 0.05% and the “Chromatographic purity B) (HPLC): 4) 2-N-(tert-Butyl)-aminopropiophenone” value (time 0) was 4) 0.04%. The “Chromatographic purity B) (HPLC): 5) single unknown impurity (each)” value (time 0) was 5) 0.04%, the “Chromatographic purity A) (HPLC): 1) 3′-Chloropropiophenone” value (time 0) was 1) n.d and the “Chromatographic purity A) (HPLC): 3) 3′-Chlorobenzoic acid” value (time 0) was 3) n.q. The “Chromatographic purity A) (HPLC): 2) 3′-Chloro-2-bromopropiophenone” value (time 0) was 2) n.d, the “Assay (HPLC)” value (time 0) was 99.6% and the Description (time 0) was “conform”.
